Assays:
[1] = tested on: Human airway smooth muscle (HASM) cells; experiment: Thrombin-induced proliferation of human airway smooth muscle (HASM) cells, cell number after 48 h; assay type: cell-based; conditions: for IC50: Homo sapiens, negative log of the concentration that reduces the thrombin-induced proliferative response by 50%, pIC50 of 4.00 = inactive, read-out: HASM-Thr pIC50 (converted); for HASM- Thr pIC25 / HASM- Thr pIC75: two site model, thrombin-induced proliferation; for HASM- Thr pIC25: first phase (inhibition up to 50%); for HASM- Thr pIC75: second phase (inhibition up to 100%)
Protocol: Human airway smooth muscle (HASM) cells were cultured from macroscopically normal bronchi (0.5-2 cm diameter) obtained from lung resection or heart-lung transplant specimens provided by the Alfred Hospital (Melbourne) according to methods published in detail previously (Fernandes et al., 1999).
Approximately 0.1 g of smooth muscle was stripped from the wall of the bronchus for each cell culture. Dissected tissue was immersed in Dulbecco's modified Eagle's medium (DMEM) (Flow Laboratories, Scotland), supplemented with 100 U/mL penicillin G (CSL, Australia) and 100 ug/mL streptomycin (CSL, Australia). The tissue was rinsed in phosphate buffered saline (PBS; Oxoid, England) and the airway smooth muscle was chopped into 2 mm^3 pieces and digested for 2 hours in DMEM containing elastase (0.5 mg/mL: Worthington Biochemical, USA) followed by a 12 hour incubation in DMEM containing collagenase (1 mg/mL) (Worthington Biochemical, USA), at 37° C. with agitation.
The resulting cell suspension was centrifuged and washed three times in phosphate buffered saline (PBS). Following the last centrifugation step, the cells were resuspended in 25 mL of DMEM supplemented with L-glutamine (2 mM: Sigma, USA), penicillin G (100 U/mL), streptomycin (100 μg/mL), amphotericin B (2 μg/mL: Wellcome, UK) and heat-inactivated FCS (10% v/v: CSL, Australia) and seeded into 25 cm^2 culture flasks. The primary isolates were incubated for 7 to 14 days to reach confluence.
Cells were harvested weekly by 10 min exposure to trypsin (0.5%: CSL, Australia) and EDTA (1 mM in PBS: BDH, Australia) and passaged at a 1:3 ratio into 75 cm^2 flasks.
The activity of the compounds has been established in cell culture by exploring their effects on mitogen-induced increases in cell number. We investigated the effects of 2MEO and its analogues, 4NO and 4NOM, on the proliferation of HASM cells in response to the proliferative stimulus of either thrombin of basic fibroblast growth factor (bFGF). Cells were seeded onto 6-well plates at a density of 1.5×10^4 cells cm^2, made quiescent by removal of serum-containing media for 24 hours and then stimulated for 48 h with either thrombin (0.3 U/ml) or bFGF (300 pM). The test compounds were pre-incubated with HASM cells for 30 minutes before the addition of thrombin. At the end of the 48 hour incubation period, cells were detached from the culture plate by trypsin (0.5% w/v in PBS containing 1 mM EDTA), incubated for 5 minutes at ambient temperature in PBS containing 0.5% (w/v) trypan blue, washed twice (2% FCS in PBS), isolated by centrifugation (12,000×g, 5 min) and resuspended in 200 μl 2% FCS in PBS for counting in a haemocytometer chamber.
Data are expressed as a percentage of the cell number in vehicle treated wells and are presented as the mean and standard error of the mean.
The potency of the compounds in regulating thrombin-induced proliferation of human airway smooth muscle (HASM) was assessed in cells maintained in culture as described above. The potencies are presented as pIC50 values (Column A of Table 4) denoting the negative log of the concentration that reduces the proliferative response by 50%. […] When the single phase model was determined to be more appropriate, the values of pIC25 and pIC75 were not calculated or shown in the table.

[2] = tested on: type II airway epithelial cell line, A549; experiment: Proliferation of A549 cells in response to 5% FCS; assay type: cell-based, human; conditions: Homo sapiens, A549; proliferation in response to 5% FCS; pIC50 of 4.00 = inactive; read-out: A549 PIC50 (converted)
Protocol: The effects of 4NO were evaluated in a number of non-smooth muscle cell types including the type II airway epithelial cell line, A549 (ATCC accession number ATCC CCL-185 Lung carcinoma human) (FIG. 2); the human breast tumour cell line, MCF7, (ATTC accession number ATCC HTB-22 breast adenocarcinoma, human) which expresses the estrogen receptor (FIG. 3); and in bovine aortic endothelial cells (BAEC) (FIG. 4).
The effects of test compounds were examined on proliferation of A549 cells in response to 5% fetal calf serum (FCS). Analogues were pre-incubated with A549 cells for 30 min before the addition of FCS. The incubation continued for 48 h before cell enumeration. Data are expressed as a percentage of the cell number in vehicle treated wells and are presented as the mean and standard error of the mean. Similarly the effects of 2MEO and 4NO on proliferation of MCF7 in response to 5% FCS or epidermal growth factor (EGF, 300 pM) were examined, as were the effects of 2MEO and 4NO on proliferation of BAEC in response to 5% FCS. The incubation parameters were the same as described above and results are presented as the mean and standard error of the mean.
This assay was also used to evaluate the ability of other compounds to inhibit the proliferation of non-smooth muscle cells MCF7 and A549 (described above) in response to 5% FCS. The results of this assay are presented in Table 4 (columns G and H respectively). The potency of the compounds was considerably less in inhibiting proliferation of these cell lines than it was for HASM. These observations support the contention that there are cell type-specific targets for the actions of these compounds. Such assays may also be adopted to examine the effect of other disclosed compounds on these cells or on other non-smooth muscle cells of interest.

Estrogen Receptor (ER) = target: T1, Estrogen Receptor (ER) (Rattus norvegicus, UniProt P06211); experiment: Estrogen receptor binding assay, 3H-estradiol displacement from rat uterine cytosol; conditions: 3H-estradiol displacement, cytosolic preparations of rat uterus; pIC50 of 4.00 = inactive; read-out: ER-RLB pIC50 (converted)
T1 construct: using rat uterine cytosol as a source of ER; from tissue; host or cells: rat uterus, cytosol fraction (30000 x g supernatant)
T1 sequence (P06211 1-600): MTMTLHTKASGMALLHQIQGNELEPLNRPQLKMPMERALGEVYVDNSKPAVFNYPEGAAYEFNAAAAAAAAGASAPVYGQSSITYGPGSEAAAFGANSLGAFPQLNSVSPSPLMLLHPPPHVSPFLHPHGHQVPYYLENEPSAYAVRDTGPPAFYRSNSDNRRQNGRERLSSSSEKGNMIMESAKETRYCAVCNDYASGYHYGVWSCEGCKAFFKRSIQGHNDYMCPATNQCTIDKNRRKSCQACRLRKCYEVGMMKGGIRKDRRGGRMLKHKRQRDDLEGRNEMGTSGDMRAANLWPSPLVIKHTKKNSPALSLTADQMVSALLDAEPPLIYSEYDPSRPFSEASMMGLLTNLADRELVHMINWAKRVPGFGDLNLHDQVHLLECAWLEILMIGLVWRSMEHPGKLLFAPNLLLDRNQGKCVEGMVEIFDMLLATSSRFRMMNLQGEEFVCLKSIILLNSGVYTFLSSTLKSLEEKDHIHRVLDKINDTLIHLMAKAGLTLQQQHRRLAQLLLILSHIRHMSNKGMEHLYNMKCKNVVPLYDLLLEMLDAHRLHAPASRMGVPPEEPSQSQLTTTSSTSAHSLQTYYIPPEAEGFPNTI
Protocol: Uteri (6-10 per batch) were isolated from Brown Norway rats (250-350g), washed free from blood in saline and homogenised in 10 mM Tris buffer (pH 7.4, 1.5 mM EDTA, 10% w/v glycerol, 1 mM phenylmethylsulfonylfluoride) using an Ultra Turrax homogeniser for 3 by 15 s bursts with intervals of 1 min on ice.
Nuclear material and cellular debris were removed by centrifugation at 750×g at 4° C. for 10 min (Sorvall RT7); the cytosol component was prepared by centrifugation at 30000×g for 120 min at 4° C. in a Beckman JM1 centrifuge. The cytosol was diluted to approximately 1 mg/ml protein (rat uterine extract) determined using the Bradford method (Biorad).
Separation of bound from free radioligand was achieved by the addition of 500 μL of dextran-coated charcoal (400 mg dextran clinical grade C and 2g of charcoal, Norit A in 100 mL of Tris buffer) and centrifugation at 4° C. in a Sorval RT7 at 2000×g for 10 min.

| SMILES | IC50 [1] [nM] | IC50 [2] [nM] | IC50 (Estrogen Receptor (ER)) [nM] | HASM- Thr pIC25 [1] | HASM- Thr pIC75 [1] |
| --- | --- | --- | --- | --- | --- |
| COc1cc2c(cc1O)/C(=N/OCc1ccccc1[N+](=O)[O-])C[C@@H]1[C@@H]2CC[C@]2(C)/C(=N/O)CC[C@@H]12 [CP-DM-3-117, 2-methoxy-6-(2-nitrobenzyloxy)iminoestrone-17-oxime] | 6460 | 5130 | – | – | – |
| COc1cc2c(cc1O)/C(=N/OCc1cccc(C(F)(F)F)c1)C[C@@H]1[C@@H]2CC[C@]2(C)/C(=N/O)CC[C@@H]12 [CP-DM-3-118, 2-methoxy-6-(3-trifluoromethylbenzyloxy)iminoestrone-17-oxime] | 2950 | – | 20900 | – | – |
| COc1cc2c(cc1O)/C(=N/OCc1ccccc1[N+](=O)[O-])C[C@@H]1[C@@H]2CC[C@]2(C)[C@@H](O)CC[C@@H]12 [CP-DM-3-124, 2-methoxy-6-(2-nitrobenzyloxy)iminoestradiol] | 44.7 | – | 891 | 9.35 | 6.36 |
| COc1cc2c(cc1O)/C(=N/OCc1ccncc1)C[C@@H]1[C@@H]2CC[C@]2(C)[C@@H](O)CC[C@@H]12 [CP-DM-4-16, 2-methoxy-6-(4-pyridylmethyloxy)iminoestradiol] | 1450 | – | – | 6.57 | 5.19 |
| COc1cc2c(cc1O)/C(=N/OCc1ccc(C#N)cc1)C[C@@H]1[C@@H]2CC[C@]2(C)[C@@H](O)CC[C@@H]12 [CP-DM-4-37, 6-(4-cyanobenzyloxy)imino-2-methoxyestradiol] | 12900 | – | 6460 | – | – |
| COc1cc2c(cc1O)/C(=N/OCc1cccc(C#N)c1)C[C@@H]1[C@@H]2CC[C@]2(C)/C(=N/O)CC[C@@H]12 [CP-DM-4-51, 2-methoxy-6-(3-cyanobenzyloxy)iminoestrone-17-oxime] | 4370 | – | 34700 | 5.46 | 5.26 |
| COc1cc2c(cc1O)/C(=N/OCc1cccc(C#N)c1)C[C@@H]1[C@@H]2CC[C@]2(C)[C@@H](O)CC[C@@H]12 [CP-DM-4-52, 2-methoxy-6-(3-cyanobenzyloxy)iminoestradiol] | 955 | – | 398 | – | – |
| COc1cccc(CO/N=C2\C[C@@H]3[C@H](CC[C@]4(C)[C@@H](O)CC[C@@H]34)c3cc(OC)c(O)cc32)c1 [CP-DM-4-62, 2-methoxy-6-(3-methoxybenzyloxy)iminoestradiol] | 2190 | – | 1000 | 5.69 | 5.63 |
| COc1cc2c(cc1O)/C(=N/OCc1cccc(OC(F)(F)F)c1)C[C@@H]1[C@@H]2CC[C@]2(C)[C@@H](O)CC[C@@H]12 [CP-DM-4-63, 2-methoxy-6-(3-trifluoromethoxybenzyloxy)iminoestradiol] | 347 | – | 135 | 7.70 | 5.62 |
| COc1cc2c(cc1O)/C(=N/OCc1ccc(OC(F)(F)F)cc1)C[C@@H]1[C@@H]2CC[C@]2(C)[C@@H](O)CC[C@@H]12 [CP-DM-4-64, 2-methoxy-6-(4-trifluoromethoxybenzyloxy)iminoestradiol] | 2450 | – | 1580 | 6.56 | 4.81 |
| COc1cccc(CO/N=C2\C[C@@H]3[C@H](CC[C@]4(C)/C(=N/O)CC[C@@H]34)c3cc(OC)c(O)cc32)c1 [CP-DM-4-66, 2-methoxy-6-(3-methoxybenzyloxy)iminoestrone-17-oxime] | 10000 | – | – | – | – |
| COc1cc2c(cc1O)/C(=N/OCc1cccc(OC(F)(F)F)c1)C[C@@H]1[C@@H]2CC[C@]2(C)/C(=N/O)CC[C@@H]12 [CP-DM-4-67, 2-methoxy-6-(3-trifluoromethoxybenzyloxy)iminoestrone-17-oxime] | 10000 | – | – | – | – |
| CO/N=C1\CC[C@H]2[C@@H]3C/C(=N\OCc4ccc([N+](=O)[O-])cc4)c4cc(O)c(OC)cc4[C@H]3CC[C@]12C [CP-DM-4-75, 6-(4-nitrobenzyloxy)imino-2-methoxyestrone-17-methyloxime] | 2570 | – | – | – | – |
| COc1cc2c(cc1O)/C(=N/OCc1ccc(C)cc1)C[C@@H]1[C@@H]2CC[C@]2(C)/C(=N/O)CC[C@@H]12 [CP-DM-4-76, 2-methoxy-6-(4-methylbenzyloxy)iminoestrone-17-oxime] | 4270 | – | – | – | – |
| C[C@]12CC[C@@H]3c4ccc(O)cc4/C(=N/OCc4cc(F)cc(F)c4)C[C@H]3[C@@H]1C[C@@H](O)[C@@H]2O [CP-DM-4-88, 6-(3,5-difluorobenzyloxy)iminoestriol] | 15800 | – | – | – | – |
| C#C[C@]1(O)CC[C@H]2[C@@H]3C/C(=N\OCc4ccc([N+](=O)[O-])cc4)c4cc(O)ccc4[C@H]3CC[C@@]21C [CP-DM-4-89, 6-(4-nitrobenzyloxy)imino-17-ethinyl-estradiol] | – | – | 5620 | – | – |

Reference: patent US20070275935A1, “Estratriene Derivatives” (priority 2003, published 2007)
